# Measurements from patent US20030232986A1, “Inhibitors of caspases” (Vertex Pharmaceuticals Incorporated, priority 1998, published 2003).
# *1 amine or outer side, *2 acyl side, *3 side chain or, on linkers, in order; H or OH if unused. Where a SMILES comes first, the peptide text is derived from it. [ ]: non-standard residue; d: D form. The star is where a group is joined. 4Abz = Nc1ccc(C(=O)O)cc1; CO = O=C([*:1])[*:2]; NHPh = c1ccc(N*)cc1
# Molecular target: T1, Caspase-1 (Homo sapiens, UniProt P29466)
# T1 sequence (P29466 120-297 limits assumed): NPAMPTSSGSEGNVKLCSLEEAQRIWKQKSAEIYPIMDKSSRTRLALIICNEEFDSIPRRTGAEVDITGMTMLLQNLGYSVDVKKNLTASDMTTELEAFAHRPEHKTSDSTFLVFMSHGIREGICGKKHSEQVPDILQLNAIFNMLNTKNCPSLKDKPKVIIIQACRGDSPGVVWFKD
# T1 sequence (P29466 317-404 limits assumed): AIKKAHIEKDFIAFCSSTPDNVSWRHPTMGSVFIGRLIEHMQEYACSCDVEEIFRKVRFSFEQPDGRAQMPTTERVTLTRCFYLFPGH
# Assay: Caspase-1 enzyme inhibition (Ki)
# Assay type: biochemical
# Details: not given
# Experimental: Ki values for test compounds with the various caspases were obtained by the method of Margolin et al. (J. Biol. Chem., 272 pp. 7223-7228 (1997)). Assays were performed in 10 mM Tris (Sigma Corp, St Louis Mo.) pH 7.5, 1 mM Dithiothreitol (DTT, Research Organic INC, Cleveland, Ohio) and 0.1% CHAPS (Pierce, Rockford Ill.) at 37° C. For caspase-3, a solution of 8% glycerol was added to the assay buffer to improve enzyme stability. A 65 μL aliquot of the assay buffer and 5 μL aliquot of the appropriate dilutions of inhibitor in DMSO where pipetted into a 96 well plate, treated with 10 μL of caspase, then diluted in assay buffer (0.5-40 nM active protein by active site titration). A control containing DMSO but no compound was included for each determination. The plates were then incubated for 15 minutes at 37° C., before addition of the appropriate substrate (20 μL, final concentration 1-4×KM, final assay volume 100 μL) to initiate the reaction. Reaction rates were measured at 37° C. either by following the time dependant increase in absorbance at 405 nm (for the pNA substrates) or in fluorescence (Ex 390, Em 460) (for the AMC substrates). The rates obtained were plotted against inhibitor concentration and the data fit to the Morrison tight-binding equation for competitive inhibitors (Morrison, J. F., Biochem. Biophys. Acta, 185 pp. 269-286 (1969)). The substrates used for the individual assays were as follows:
# Caspase-1 Suc-YVAD-pNA (Bachem, King of Prussia, Pa.) (final concentration in the assay 80 μM),
row,SMILES,Ki [µM]
1,COc1ccc(CCC(=O)N[C@H](C(=O)N2CCC[C@H]2C(=O)N[C@H](C=O)CC(=O)O)C(C)C)cc1OC [Example 5o],0.01 to 1
2,CC(C)[C@H](NC(=O)C(c1ccccc1)c1ccccc1)C(=O)N1CCC[C@H]1C(=O)N[C@H](C=O)CC(=O)O [Example 5q],0.01 to 1
3,CC(C)[C@H](NC(=O)C(c1ccc(Cl)cc1)c1ccc(Cl)cc1)C(=O)N1CCC[C@H]1C(=O)N[C@H](C=O)CC(=O)O [Example 5p],0.01 to 1
4,Cc1onc(-c2c(F)cccc2Cl)c1C(=O)N[C@H](C(=O)N1CCC[C@H]1C(=O)N[C@H](C=O)CC(=O)O)C(C)C [Example 5ae],0.01 to 1
5,CC(=O)N[C@H](Cc1c[nH]c2ccccc12)C(=O)N[C@H](C(=O)N1CCC[C@H]1C(=O)N[C@H](C=O)CC(=O)O)C(C)C [Example 5ah] (Ac-[dW]VPD-aldehyde),0.01 to 1
6,CC(C)[C@H](NC(=O)C1(c2ccccc2)CCCC1)C(=O)N1CCC[C@H]1C(=O)N[C@H](C=O)CC(=O)O [Example 5t],> 1

# Same assay, conditions: substrate Suc-YVAD-pNA 80 μM, 37° C., pH 7.5
row,SMILES,Ki [µM]
1,C[C@H](NC(=O)C(=O)c1ccccc1)C(=O)N1CC(F)(F)C[C@H]1C(=O)N[C@H](C=O)CC(=O)O [Example 27c],0.01 to 1
2,C[C@H](NC(=O)c1ccc(N)cc1)C(=O)N1CCC[C@H]1C(=O)N[C@H](C=O)CC(=O)O [Example 7aq] (H-[4Abz]APD-aldehyde),0.01 to 1
3,CC(C)[C@H](NC(=O)c1ccc(N)c(Cl)c1)C(=O)N1CCN(C)C[C@H]1C(=O)N[C@H](C=O)CC(=O)O [Example 17a],0.01 to 1
4,CC(C)[C@H](NC(=O)Cc1ccc(Cl)c(Cl)c1)C(=O)N1CCC[C@H]1C(=O)N[C@H](C=O)CC(=O)O [Example 5an],0.01 to 1
5,"C[C@H](NC(=O)c1cc(F)c(N(C)C)c(F)c1)C(=O)N1CCC[C@H]1C(=O)N[C@H](C=O)CC(=O)O [Example 122n, 3-({1-[2-(4-Dimethylamino-3,5-difluoro-benzoylamino)-propionyl]-pyrrolidine-2-carbonyl}-amino)-4-oxo-butyric acid]",0.01 to 1
6,Cc1ccn2c(=O)c(C(=O)N[C@H](C(=O)N3CCC[C@H]3C(=O)N[C@H](C=O)CC(=O)O)C(C)C)cnc2c1 [Example 5ap],0.01 to 1
7,"CCC(=O)Nc1ccc(C(=O)N[C@@H](C)C(=O)N2CCC[C@H]2C(=O)N[C@H](C=O)CC(=O)O)cc1Cl [Example 122t, 3-({1-[2-(3-Chloro-4-propionylamino-benzoylamino)-propionyl]-pyrrolidine-2-carbonyl}-amino)-4-oxo-butyric acid]",0.01 to 1
8,COc1ccc(CCC(=O)N[C@H](C(=O)N2CCC[C@H]2C(=O)N[C@H](C=O)CC(=O)O)C(C)C)cc1OC [Example 5o],0.01 to 1
9,C[C@H](NC(=O)Nc1ccccc1)C(=O)N1CCC[C@H]1C(=O)N[C@H](C=O)CC(=O)O [Example 7af] ({NHPh-CO}-Ala-Pro-Asp-aldehyde),0.01 to 1
10,CC(C)[C@H](NC(=O)C(c1ccccc1)c1ccccc1)C(=O)N1CCC[C@H]1C(=O)N[C@H](C=O)CC(=O)O [Example 5q],0.01 to 1
11,CC(C)[C@H](NC(=O)c1cccc2ccccc12)C(=O)N[C@@H](C)C(=O)N[C@H](C=O)CC(=O)O [Example 29f],< 0.01
12,"Nc1ccc(C(=O)NCC(=O)N2CCC[C@H]2C(=O)N[C@H](C=O)CC(=O)O)cc1Cl [Example G1, 3-({1-[(4-Amino-3-chloro-benzoylamino)-acetyl]-pyrrolidine-2-carbonyl}-amino)-4-oxo-butyric acid]",> 1
13,"CC(Nc1ccccc1)C(=O)N1CCCC1C(=O)NC(C=O)CC(=O)O (stereo not drawn) [Example 121, 4-Oxo-3-{[1-(2-phenylamino-propionyl)-pyrrolidine-2-carbonyl]-amino}-butyric acid]",> 1
14,Cc1cc(C(=O)N[C@@H](C)C(=O)N2CC(F)(F)C[C@H]2C(=O)N[C@H](C=O)CC(=O)O)cc(C)c1O [Example 27j],0.01 to 1
15,CC(C)[C@H](NC(=O)C(c1ccc(Cl)cc1)c1ccc(Cl)cc1)C(=O)N1CCC[C@H]1C(=O)N[C@H](C=O)CC(=O)O [Example 5p],0.01 to 1
16,C[C@H](NS(=O)(=O)c1ccccc1)C(=O)N1CCC[C@H]1C(=O)N[C@H](C=O)CC(=O)O [Example 7ae],0.01 to 1
17,C[C@H](NC(=O)c1ccc(OC(F)(F)F)cc1)C(=O)N1CCC[C@H]1C(=O)N[C@H](C=O)CC(=O)O [Example 7i],0.01 to 1
18,"COc1ccc(C(=O)NC(C(=O)N2N=C(C(C)(C)C)SC2C(=O)NC(C=O)CC(=O)O)C(C)C)cc1 (single isomer, unassigned) [Example 46a, 3-({5-tert-butyl-3-[2-(4-methoxy-benzoylamino)-3-methyl-butyryl]-2,3-dihydro-[1,3,4]thiadiazole-2-carbonyl)-amino)-4-oxo-butyric acid]",> 1

row,SMILES,Ki [µM]
1,Cc1onc(-c2c(F)cccc2Cl)c1C(=O)N[C@H](C(=O)N1CCC[C@H]1C(=O)N[C@H](C=O)CC(=O)O)C(C)C [Example 5ae],0.01 to 1
2,C[C@H](NC(=O)Oc1ccccc1)C(=O)N1CCC[C@H]1C(=O)N[C@H](C=O)CC(=O)O [Example 7ag],0.01 to 1
3,"COc1c(C(=O)NC(C)C(=O)N2CC(F)(F)CC2C(=O)NC(C=O)CC(=O)O)ccc(NC(C)=O)c1Cl (stereo not drawn) [Example 123c, 3-({1-[2-(4-Acetylamino-3-chloro-2-methoxy-benzoylamino)-propionyl]-4,4-difluoro-pyrrolidine-2-carbonyl)-amino)-4-oxo-butyric acid]",0.01 to 1
4,CC(C)C[C@@H](C(=O)N[C@H](C=O)CC(=O)O)N1CC[C@@H](NC(=O)c2ccc3[nH]nnc3c2)C1=O [Example 32c],> 1
5,CC(=O)N[C@H](Cc1c[nH]c2ccccc12)C(=O)N[C@H](C(=O)N1CCC[C@H]1C(=O)N[C@H](C=O)CC(=O)O)C(C)C [Example 5ah] (Ac-[dW]VPD-aldehyde),0.01 to 1
6,C[C@H](NC(=O)c1ccc(F)c(F)c1)C(=O)N1CCC[C@H]1C(=O)N[C@H](C=O)CC(=O)O [Example 7al],0.01 to 1
7,CC(C)[C@H](NC(=O)C1(c2ccccc2)CCCC1)C(=O)N1CCC[C@H]1C(=O)N[C@H](C=O)CC(=O)O [Example 5t],> 1
8,Cc1cc(C(=O)N[C@@H]2CCN([C@@H](CC(C)C)C(=O)N[C@H](C=O)CC(=O)O)C2=O)cc(C)c1O [Example 32b],> 1
9,CC(=O)N(C)c1ccc(C(=O)N[C@@H](C)C(=O)N2CCC[C@H]2C(=O)N[C@H](C=O)CC(=O)O)cc1 [Example 7j],> 1
10,Cc1nc(C)c(C(=O)N[C@@H](C)C(=O)N2CCC[C@H]2C(=O)N[C@H](C=O)CC(=O)O)s1 [Example 7r],0.01 to 1
11,CC(C)[C@H](NC(=O)c1c(-c2ccccc2)nnc2ccccc12)C(=O)N1CCC[C@H]1C(=O)N[C@H](C=O)CC(=O)O [Example 5bc],0.01 to 1
12,"CC(C)CC(=O)Nc1ccc(C(=O)N[C@@H](C)C(=O)N2CCC[C@H]2C(=O)N[C@H](C=O)CC(=O)O)cc1Cl [Example 122v, 3-[(1-{2-[3-Chloro-4-(3-methyl-butyrylamino)-benzoylamino]-propionyl}-pyrrolidine-2-carbonyl}-amino]-4-oxo-butyric acid]",0.01 to 1
13,CC(C)C[C@@H](C(=O)N[C@H](C=O)CC(=O)O)N1CC[C@@H](NC(=O)c2c(Cl)cccc2Cl)C1=O [Example 32e],0.01 to 1
14,CC(C)C[C@@H](C(=O)N[C@H](C=O)CC(=O)O)N1CC[C@@H](NC(=O)c2nccc3ccccc23)C1=O [Example 32a],> 1
15,"C[C@H](NC(=O)c1ccc(NC(=O)Cc2ccccc2)c(Cl)c1)C(=O)N1CCC[C@H]1C(=O)N[C@H](C=O)CC(=O)O [Example 122u, 3-({1-[2-(3-Chloro-4-phenylacetylamino-benzoylamino)-propionyl]-pyrrolidine-2-carbonyl}-amino)-4-oxo-butyric acid]",< 0.01
16,CC(=O)Nc1c(Cl)cc(C(=O)N[C@@H](C)C(=O)N2CC(F)(F)C[C@H]2C(=O)N[C@H](C=O)CC(=O)O)cc1Cl [Example 27k],0.01 to 1
17,"CN(NC(=O)N1CCCC1C(=O)NC(C=O)CC(=O)O)C(=O)c1nccc2ccccc12 (stereo not drawn) [Example 34, 3-({1-[N-(isoquinoline-1-carbonyl)-N-methyl-hydrazinocarbonyl]-pyrrolidine-2-carbonyl}-amino)-4-oxo-butyric acid]",> 1
18,"C[C@H](NC(=O)c1ccc(N)c(Cl)c1)C(=O)N1CCC[C@@H]1C(=O)N[C@H](C=O)CC(=O)O [Example 122o, 3-({1-[2-(4-Amino-3-chloro-benzoylamino)-propionyl]-pyrrolidine-2-carbonyl}-amino)-4-oxo-butyric acid]",> 1
